Seven compounds from PMC12396409, “Screening and hit evaluation of a microbial metabolite library against the pathogenic Plasmodium falciparum and Toxoplasma gondii parasites” (International Journal for Parasitology: Drugs and Drug …, 2025) can be followed below.

Assay [1] deals with P. falciparum 3D7 parasites. Briefly: P. falciparum growth inhibition assay, 2-cycle (120 h treatment), delayed-death screen and dose-response. It counts as cell-based, Plasmodium falciparum. As to conditions: for activity at 2 µg/mL: Plasmodium falciparum.
The test system of assay [2] is T. gondii RH strain (RH-Tub-eYFP) tachyzoites. Briefly: microbe, parasite or virus in culture. Type of assay: cell-based, Toxoplasma gondii. As to conditions: 72 h, 72 h; for percent parasite growth at 2 µg/mL: Toxoplasma gondii.
Assay [3] has as its system P. falciparum 3D7 parasites. Briefly: P. falciparum growth inhibition assay, 1-cycle (72 h treatment), SYBR DNA staining (library screen at 2 μg/mL and dose-response). Type of assay: cell-based, Plasmodium falciparum. The settings on record: for activity at 2 µg/mL: Plasmodium falciparum.
[4] abbreviates: T. gondii, parasite screen 2 μg/mL, % growth, replicate 1, read-out: Tg_72h_%Growth_Rep1.
Where [5] appears, read: T. gondii, parasite screen 2 μg/mL, % growth, replicate 2, read-out: Tg_72h_%Growth_Rep2.
The mark [6] stands for this setting: library screen at 2 μg/mL, % growth, replicate 1, read-out: Tg_72h_%Growth_Rep1.
The mark [7] stands for this setting: library screen at 2 μg/mL, % growth, replicate 2, read-out: Tg_72h_%Growth_Rep2.

Like-named read-outs stand apart in the source and are kept apart here. Where a SMILES comes first, the peptide text is derived from it. Bridges are numbered along the chain shown (N, C = ends). The star is where a group is joined. X2 = CCCCCCCCCCCC(O)CC(=O)*

`CCCC[C@@]1(OC(=O)CCC(=O)O)CC[C@]2(CC[C@H](C)[C@@H](C/C=C(C)/C=C/[C@H](O)[C@@H](C)/C=C/C(=O)O)O2)O[C@H]1/C=C/C(C)=C/C(=O)O` [Reveromycin A]: the activity at 2 µg/mL in assay [1] (3D7, P. falciparum, 120 h, parasite screen 2 μg/mL, % growth, replicate 1, read-out: Pf_120h_%Growth_Rep1) worked out at 69.8%; in assay [1] (3D7, P. falciparum, 120 h, parasite screen 2 μg/mL, % growth, replicate 2, read-out: Pf_120h_%Growth_Rep2) it was 88.5%; in assay [3] (3D7, P. falciparum, 72 h, parasite screen 2 μg/mL, % growth, replicate 1, read-out: Pf_72h_%Growth_Rep1) it was 75.9%; in assay [3] (3D7, P. falciparum, 72 h, parasite screen 2 μg/mL, % growth, replicate 2, read-out: Pf_72h_%Growth_Rep2), 65.4%. Besides, the percent parasite growth at 2 µg/mL turned out to be 119% in assay [2] (setting [4]) and 88.8% in assay [2] (setting [5]).
Compound `O=C1CCCC2C3CC(CN12)C1CCCCN1C3` (stereo not drawn) [BIA-L1951] gave a Pf_120h_%Growth_Rep1 in assay [1] (P. falciparum 3D7, 120 h, library screen at 2 μg/mL, % growth, replicate 1) of 173.37%. This compound had a Pf_120h_%Growth_Rep2 in assay [1] (P. falciparum 3D7, 120 h, library screen at 2 μg/mL, % growth, replicate 2) of 101.50%. In assay [2] (T. gondii RH, library screen at 2 μg/mL, % growth, replicate 1), the Tg_72h_%Growth_Rep1 is 86.61%. Moreover, the Tg_72h_%Growth_Rep2 in assay [2] (T. gondii RH, library screen at 2 μg/mL, % growth, replicate 2) was determined as 107.54%. This compound also had a Pf_72h_%Growth_Rep1 in assay [3] (P. falciparum 3D7, 72 h, library screen at 2 μg/mL, % growth, replicate 1) of 95.10%. Moreover, the Pf_72h_%Growth_Rep2 in assay [3] (P. falciparum 3D7, 72 h, library screen at 2 μg/mL, % growth, replicate 2) came out at 93.40%.
As to `COc1cccc2c1C(=O)c1c(O)c3c(c(O)c1C2=O)C[C@@](O)(C(=O)CO)C[C@@H]3O[C@H]1C[C@H](N)[C@H](O)[C@H](C)O1` [Doxorubicin], the activity at 2 µg/mL was determined as 15.8% in assay [1] (3D7, 120 h, library screen at 2 μg/mL, 120 h, % growth, replicate 1, read-out: Pf_120h_%Growth_Rep1); 35.7% in assay [1] (3D7, 120 h, library screen at 2 μg/mL, 120 h, % growth, replicate 2, read-out: Pf_120h_%Growth_Rep2); 51.3% in assay [3] (3D7, 72 h, library screen at 2 μg/mL, 72 h, % growth, replicate 1, read-out: Pf_72h_%Growth_Rep1); 57.9% in assay [3] (3D7, 72 h, library screen at 2 μg/mL, 72 h, % growth, replicate 2, read-out: Pf_72h_%Growth_Rep2). In addition, the percent parasite growth at 2 µg/mL in assay [2] (setting [6]) was 214%; in assay [2] (setting [7]), 123%.
On to `CCCCCCCCCCCC(O)CC(=O)NC(CC(C)C)C(=O)NC(CCC(=O)O)C(=O)NC1C(=O)NC(C(C)C)C(=O)NC(CC(C)C)C(=O)NC(CO)C(=O)NC(CC(C)C)C(=O)NC(CC(C)C)C(=O)NC(CO)C(=O)NC(C(C)C)C(=O)OC1C` (stereo not drawn) [BIA-O1431] (X2-LETVLSLLSV; ester 3-C; configuration not given here), for which the Pf_120h_%Growth_Rep1 in assay [1] (P. falciparum 3D7, 120 h, parasite screen at 2 μg/mL, % growth, replicate 1) came to 94.38%. The compound further showed a Pf_120h_%Growth_Rep2 in assay [1] (P. falciparum 3D7, 120 h, parasite screen at 2 μg/mL, % growth, replicate 2) of 109.58%. The same compound gave a Tg_72h_%Growth_Rep1 in assay [2] (T. gondii, parasite screen at 2 μg/mL, % growth, replicate 1) of 138.54%. This compound came in with a Tg_72h_%Growth_Rep2 in assay [2] (T. gondii, parasite screen at 2 μg/mL, % growth, replicate 2) of 91.95%. The compound also came in with a Pf_72h_%Growth_Rep1 in assay [3] (P. falciparum 3D7, 72 h, parasite screen at 2 μg/mL, % growth, replicate 1) of 80.05%. The compound further had a Pf_72h_%Growth_Rep2 in assay [3] (P. falciparum 3D7, 72 h, parasite screen at 2 μg/mL, % growth, replicate 2) of 103.50%.
For `O=C1C=C2C=C[C@@H]3C[C@@]2(O1)[C@H]1CCCCN31` [Securinine], the activity at 2 µg/mL came out at 14.2% in assay [1] (3D7, 120 h, P. falciparum, 120 h, parasite screen 2 μg/mL, % growth, replicate 1, read-out: Pf_120h_%Growth_Rep1); 10.7% in assay [1] (3D7, 120 h, P. falciparum, 120 h, parasite screen 2 μg/mL, % growth, replicate 2, read-out: Pf_120h_%Growth_Rep2); 19.3% in assay [3] (3D7, 72 h, P. falciparum, 72 h, parasite screen 2 μg/mL, % growth, replicate 1, read-out: Pf_72h_%Growth_Rep1); 10.7% in assay [3] (3D7, 72 h, P. falciparum, 72 h, parasite screen 2 μg/mL, % growth, replicate 2, read-out: Pf_72h_%Growth_Rep2). Moreover, the percent parasite growth at 2 µg/mL in assay [2] (setting [4]) was 46.1%; in assay [2] (setting [5]), 60.2%.
On to `COC1=C2C[C@@H](C)C[C@H](OC)[C@H](O)[C@@H](C)/C=C(\C)[C@H](OC(N)=O)[C@@H](OC)/C=C\C=C(/C)C(=O)NC(=CC1=O)C2=O` [Geldanamycin], for which the activity at 2 µg/mL in assay [1] (3D7, library screen at 2 μg/mL, 120 h, % growth, replicate 1, read-out: Pf_120h_%Growth_Rep1) stood at 25.5%; in assay [1] (3D7, library screen at 2 μg/mL, 120 h, % growth, replicate 2, read-out: Pf_120h_%Growth_Rep2), 11.8%; in assay [3] (3D7, library screen at 2 μg/mL, 72 h, % growth, replicate 1, read-out: Pf_72h_%Growth_Rep1), 5.26%; in assay [3] (3D7, library screen at 2 μg/mL, 72 h, % growth, replicate 2, read-out: Pf_72h_%Growth_Rep2) it was 2.63%. The percent parasite growth at 2 µg/mL in assay [2] (setting [6]) was determined as 24.8%; in assay [2] (setting [7]), 24.3%.
As for `CC(C)[C@@H]1NC(=O)[C@H](Cc2ccccc2)NC1=O` [Cyclo(L-Phe-L-Val)], the Pf_120h_%Growth_Rep1 in assay [1] (P. falciparum, 120 h, screen at 2 μg/mL, replicate 1) came to 67.70%. Besides, in assay [1] (P. falciparum, 120 h, screen at 2 μg/mL, replicate 2), the Pf_120h_%Growth_Rep2 worked out at 97.99%. The same compound had a Tg_72h_%Growth_Rep1 in assay [2] (T. gondii, screen at 2 μg/mL, replicate 1) of 132.95%. Besides, in assay [2] (T. gondii, screen at 2 μg/mL, replicate 2), the Tg_72h_%Growth_Rep2 came to 103.43%. In assay [3] (P. falciparum, 72 h, screen at 2 μg/mL, replicate 1), this compound came in with a Pf_72h_%Growth_Rep1 of 85.66%. Also, in assay [3] (P. falciparum, 72 h, screen at 2 μg/mL, replicate 2), the Pf_72h_%Growth_Rep2 is on record as 90.47%.
